A short description of series [1]: Solubility in water or ethanol, by absorbance at 260 nm. It counts as physicochemical. Particulars: thermodynamic from solid. On the procedure:
The resultants were allowed to stand at the following temperatures (23° C. or 50° C.) for 1 hour, and thereafter centrifuged, and filtered with a filter of 0.5 μm; […] at an absorption wavelength of 260 nm.

The subject of series [2] is Human uterine cancer cells (HeLa cells). The series can be described thus: Cell activity test (cell counting kit 8). It counts as cell-based. Also on record: number of the human uterine cancer cells (number without sample taken to be 100): dose or concentration left out as unconfirmed. As to the method: Human uterine cancer cells (HeLa cells) were cultured in an incubator at a 5%-CO2 concentration and at 37° C. Thereafter, the human uterine cancer cells were inoculated to 96 wells so as to become 1000 cells/well, and cultured for one night. Then, a suspension in which the sample of Example 1 was suspended in a phosphate buffer so as to become 1 g/L was used and added so as to become […]. After 2 days, by using a “cell counting kit 8” (trade name, manufactured by Dojindo Laboratories), the number of the human uterine cancer cells was measured. When the number of the human uterine cancer cells 2 days after the culture for one night when the sample of Example 1 was not added was taken to be 100, the number of the cells when the sample of Example 1 in […] was used was 112.
On the technique in general: Tetrazolium assays rely on reduction of a dye to a coloured formazan, in cell work by metabolically active cells.

One may read the solubility as how much of the substance goes into solution per volume. On to `N=C(N)NCCCc1nc2c(=O)c3cc(C(=O)O)[nH]c3c3c(C(=O)O)cc(C(=O)O)n1c23` [Example 1, argIPQ disodium trihydrate], for which the solubility at 1 h is 0.4 mg/mL in series [1] (organic solvent or mixture, ethanol, 23° C.); 37 mg/mL in series [1] (water, 23° C.); 47 mg/mL in series [1] (water, 50° C.). Further, the “effect on cell proliferation (in words)” value in series [2] was “functioned to advance the cell proliferation”. In addition, in series [2] (after 2 days, control = 100), the “number of the human uterine cancer cells (number without sample taken to be 100)” value is 112.

The values above are taken from patent publication US10100055B2, “Imidazopyrroloquinoline salt, method for producing the same, medicament, cosmetic, and food” (Mitsubishi Gas Chemical Company, Inc., priority 2016, dated 2018).
